In PMC10455244, “Alpha-Mangostin: A Potent Inhibitor of TRPV3 and Pro-Inflammatory Cytokine Secretion in Keratinocytes” (International Journal of Molecular Sciences, 2023):

Columns and labels:
TRPA1 = biological target: T1, TRPA1 (Homo sapiens, UniProt O75762); test: Whole-cell patch-clamp, AITC-activated TRPA1 current in transfected HEK 293T cells; assay type: cell-based; conditions: 100 µM AITC
T1 construct: host or cells: HEK 293T (transient transfection)
Description: Next, we examined the impact of alpha-mangostin on other TRP channels. TRPV4- and TRPA1 trasfected HEK 293T were activated using 300 nM GSK-1016790A (GSK101) and 100 µM allyl isothiocyanate (AITC), respectively. […] The dose–response curves were obtained by applying various concentrations of alpha-mangostin (Figure 2C).
Figure 2 Alpha-mangostin (α-MG) inhibited the TRPV3 current more effectively than other TRP channels. (A) Representative I–V curves from whole-cell recordings illustrate the inhibitory effect of 0.3 µM alpha-mangostin on TRPV4 and TRPA1 channels (GSK101: GSK-1016790A, a TRPV4 agonist; RR: ruthenium red, a TRP inhibitor; AITC: allyl isothiocyanate, a TRPA1 agonist; A967: A-967079, a TRPA1 inhibitor). Currents were elicited with ramp pulses from −100 to +100 mV over 1 s, which were repetitively applied every 20 s; the holding potential was set at 0 mV. (B) Summary of the inhibition percentage after 0.3 µM alpha-mangostin treatment at −100 mV. […]
(§1) In the whole-cell configuration, voltage ramps from −100 to +100 mV over 1 s were applied every 20 s and the holding potential was set at 0 mV. Sampling at 10 kHz and low-pass filtering at 5 kHz (w-c) were applied for all recorded currents. Recorded data were analyzed using Clampfit ver. […]

TRPV3 (G573S) = biological target: T2, TRPV3 (G573S) (Homo sapiens, UniProt Q8NET8, G573S); test: Whole-cell patch-clamp, spontaneous current of TRPV3 G573S mutant in HEK 293T cells; assay type: cell-based; conditions: −100 mV, read-out: IC50, inhibition of spontaneous current of TRPV3 G573S mutant
T2 construct: host or cells: HEK 293T (transient transfection, pEGFP-N1 co-transfected as a marker)
T2 sequence (Q8NET8 1-790 G573S): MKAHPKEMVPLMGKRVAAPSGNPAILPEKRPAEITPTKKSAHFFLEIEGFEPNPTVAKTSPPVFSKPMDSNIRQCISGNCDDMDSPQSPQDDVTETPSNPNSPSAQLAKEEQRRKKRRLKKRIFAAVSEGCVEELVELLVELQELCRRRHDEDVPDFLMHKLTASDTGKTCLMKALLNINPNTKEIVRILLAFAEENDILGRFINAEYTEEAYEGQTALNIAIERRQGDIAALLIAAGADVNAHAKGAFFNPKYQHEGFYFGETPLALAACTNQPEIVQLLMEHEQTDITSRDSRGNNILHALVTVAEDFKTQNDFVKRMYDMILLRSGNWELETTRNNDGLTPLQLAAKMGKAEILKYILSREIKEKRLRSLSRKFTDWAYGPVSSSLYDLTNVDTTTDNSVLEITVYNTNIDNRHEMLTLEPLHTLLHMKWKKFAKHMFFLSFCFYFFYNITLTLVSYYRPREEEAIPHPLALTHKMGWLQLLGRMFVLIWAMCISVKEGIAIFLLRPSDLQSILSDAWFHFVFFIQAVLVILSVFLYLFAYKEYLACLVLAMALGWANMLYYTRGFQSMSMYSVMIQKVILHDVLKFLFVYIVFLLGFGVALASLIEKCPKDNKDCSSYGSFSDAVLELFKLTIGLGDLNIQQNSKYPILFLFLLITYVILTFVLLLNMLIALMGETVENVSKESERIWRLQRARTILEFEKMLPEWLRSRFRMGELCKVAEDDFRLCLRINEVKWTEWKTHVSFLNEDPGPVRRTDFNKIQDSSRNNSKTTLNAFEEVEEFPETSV
Description: For electrophysiology recording and calcium measurement, 10 µM 74a (a TRPV3 inhibitor) was added about 6 h after transfection to inhibit channel activities and prevent cell death. First, the electrophysiology activities of the mutations were recorded using a whole-cell patch-clamp. Our data presented spontaneous TRPV3 currents when −100 mV to 100 mV ramp pulses were applied, which dramatically declined with the addition of 1 µM alpha-mangostin (Figure 4A).
Figure 4 Alpha-mangostin inhibited the activity of hyperactive TRPV3 mutant channels and rescued mutation-induced cell death. (A) Alpha-mangostin inhibited the channel current in representative TRPV3 (G573S)- and TRPV3 (G573C)-expressing HEK 293T cells. […] Currents were normalized to the response at −100 mV before adding alpha-mangostin. (C) Alpha-mangostin inhibited TRPV3-mediated intracellular calcium increase in TRPV3 (G573S)-expressing HEK 293T cells. […] The bar graph on the right summarizes the change in the intracellular calcium rise inhibited by alpha-mangostin. […]
as §1

T1 sequence (O75762 whole entry, species assumed): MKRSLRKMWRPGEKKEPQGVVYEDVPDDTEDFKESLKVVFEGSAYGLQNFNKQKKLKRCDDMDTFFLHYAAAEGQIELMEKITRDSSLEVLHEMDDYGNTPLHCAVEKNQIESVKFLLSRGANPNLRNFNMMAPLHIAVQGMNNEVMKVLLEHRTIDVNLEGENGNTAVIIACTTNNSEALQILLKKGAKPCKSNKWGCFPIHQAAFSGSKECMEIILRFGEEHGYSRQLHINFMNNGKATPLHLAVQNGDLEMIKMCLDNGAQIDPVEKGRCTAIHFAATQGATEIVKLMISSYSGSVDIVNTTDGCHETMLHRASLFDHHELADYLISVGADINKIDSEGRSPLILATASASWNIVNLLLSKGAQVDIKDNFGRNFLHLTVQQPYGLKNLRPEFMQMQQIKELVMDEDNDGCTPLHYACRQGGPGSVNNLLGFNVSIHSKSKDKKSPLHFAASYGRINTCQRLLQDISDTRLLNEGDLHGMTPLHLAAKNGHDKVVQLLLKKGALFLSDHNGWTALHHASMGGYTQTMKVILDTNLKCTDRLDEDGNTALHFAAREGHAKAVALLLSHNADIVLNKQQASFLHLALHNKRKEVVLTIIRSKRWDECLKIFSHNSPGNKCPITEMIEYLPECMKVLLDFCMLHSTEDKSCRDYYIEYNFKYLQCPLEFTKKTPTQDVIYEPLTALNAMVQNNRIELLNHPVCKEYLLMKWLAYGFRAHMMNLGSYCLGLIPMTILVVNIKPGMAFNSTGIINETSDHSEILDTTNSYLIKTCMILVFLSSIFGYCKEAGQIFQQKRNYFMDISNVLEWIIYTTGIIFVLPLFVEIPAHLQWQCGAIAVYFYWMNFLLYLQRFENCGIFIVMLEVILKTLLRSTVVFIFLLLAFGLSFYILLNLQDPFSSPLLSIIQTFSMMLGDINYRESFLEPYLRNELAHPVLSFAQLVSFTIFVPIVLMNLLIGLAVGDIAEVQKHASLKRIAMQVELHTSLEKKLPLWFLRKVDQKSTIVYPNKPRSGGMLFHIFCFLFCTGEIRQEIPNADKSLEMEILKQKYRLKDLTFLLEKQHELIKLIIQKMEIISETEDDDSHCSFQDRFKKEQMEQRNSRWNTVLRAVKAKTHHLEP

In the case of COc1c(O)cc2oc3cc(O)c(CC=C(C)C)c(O)c3c(=O)c2c1CC=C(C)C [Alpha-mangostin], the inhibition at 0.3 µM (TRPA1; HEK-293T, 0.3 µM, −100 mV, read-out: Inhibition percentage of TRPA1 current) is reported as 24.8%, the IC50 (TRPA1; transfected HEK 293T, read-out: IC50, inhibition of TRPA1 current) is reported as 5.09 ± 2.21 µM and the IC50 (TRPV3 (G573S)) is reported as 2040 ± 640 nM.
